Reference: patent US20240207379A1, “STRATEGIES TO PREVENT AND/OR TREAT IMMUNE RESPONSES TO SOLUBLE ALLOFACTORS” (IMCYSE SA, priority 2008, published 2024)

Assays:
[1] = tested on: CFSE-labelled CD4(F8-) effector CD4+ T cells; test: Apoptosis of factor VIII-specific effector CD4+ T cells by cytolytic CD4+ T cells elicited with modified factor VIII epitope (Annexin V / 7-AAD); type: cell-based, factor VIII KO mice; conditions: APC (spleen B cells) loaded with 5 μg/ml huFVIII and 1 µM peptide, 72 h at 37° C., baseline mortality subtracted
Excerpt: FIG. 2. Apoptosis of allofactor-specific effector T-cells by cytolytic CD4+ T-cells induced by a T-cell epitope derived from said allofactor and modified by attaching a thioreductase motif. The allofactor used was factor VIII. See Example 5 for more details.
Polyclonal effector CD4+ T cells were obtained from the spleen of factor VIII KO mice immunised with 2 IU of recombinant human FVIII (CD4(F8-)) and purified using anti-CD4 magnetic beads. The cells were then labelled with CFSE.
Induction of apoptosis as measured by of CFSE-labelled cells was then measured by Annexin V and 7-AAD staining after incubating such cells with APC (spleen B cells) loaded with 5 μg/ml huFVIII and 1 µM of peptide of SEQ ID NO:5 (CGHCGGFTNMFATWSPSK, corresponding to the 2196-2207 amino acid sequence of the C2 domain of human factor VIII, modified by addition of a thioreductase motif (underlined) separated by 2 glycines from the Factor VIII T-cell epitope). Apoptosis was measured after 72 h culture at 37° C. When CFSE-labelled CD4(F8-) cells were co-cultured with CD4+ T cells obtained from mice immunised with a synthetic peptide of SEQ ID NO:5 (cytolytic CD4+ T cells), significant apoptosis was induced. […] When CFSE-labelled CD4(F8−) cells were co-cultured in the presence of a double number of unlabeled CD4(F8−) cells, no apoptosis was induced (“CD4(F8−)” caption in FIG. 2). […]

murine splenic B cells = test: Induction into apoptosis of splenic B cells of naïve mice by CD4+ T cells expanded with peptide (annexin V / 7-AAD Facs); type: cell-based, C57BI/6 mice
Experimental: FIG. 1. The bars in this Figure illustrate the viability of murine splenic B cells incubated under different conditions and evaluated by Facs analysis of annexin V binding and 7-AAD (two markers of apoptosis). • B (wt-pep): murine splenic B cells incubated with natural (wild-type) T-cell epitope derived from human anti-fVIII antibody; • B (cc-pep): murine splenic B cells incubated with T-cell epitope derived from human anti-fVIII antibody, wherein said T-cell epitope is modified by attaching the amino acids CHGC (SEQ ID NO: 20) to the N-terminus of the epitope; • B (cc-pep)+ T (cc-pep): murine splenic B cells incubated with modified anti-fVIII antibody T-cell epitope and with T cells expanded with modified T-cell epitope (modification as in “B (cc-pep)”); • B (wt-pep)+ T (cc-pep): murine splenic B cells incubated with wild-type anti-fVIII antibody T-cell epitope and T cells expanded with the corresponding modified T-cell epitope.
It was determined whether naïve B cells presenting a class II restricted T cell epitope derived from a BCR idiotype could be deleted by recognition and activation of T cells elicited to a specific anti-factor VIII antibody carrying the same idiotype. […]

For “CGHCGGFTNMFATWSPSK (modified human factor VIII T-cell epitope; MISC_FEATURE - thioreductase motif; MISC_FEATURE - Gly-Gly-linker) [SEQ ID NO:5]”, the “apoptosis of CFSE-labelled CD4(F8-) cells co-cultured with cytolytic CD4+ T cells from mice immunised with the peptide” value ([1]; CD4(F8+) pool1) was 6.6% and the “apoptosis of CFSE-labelled CD4(F8-) cells co-cultured with cytolytic CD4+ T cells from mice immunised with the peptide” value ([1]; CD4(F8+)pool2) was 8.4%.

In the case of “YCAVPDDPDA (T-cell epitope of CDR3 of anti-factor VIII antibody BO2C11) [SEQ ID NO:1, reference compound]”, the “influence on the survival of control B cells of T cells expanded with the peptide” value (murine splenic B cells; incubation period of 18 h, data not shown) was “no or only little influence”.

With “CHGCYCAVPDPDA (modified T-cell epitope of CDR3 of anti-factor VIII antibody BO2C11; MISC_FEATURE - thioreductase motif) [SEQ ID NO:2]” the “induction into apoptosis of B cells by T cells expanded with the peptide” value (murine splenic B cells; B cells loaded with either peptide of SEQ ID NO:1 or SEQ ID NO:2, FIG. 1) was “induced into apoptosis”.
